Experimental data from PMC5218480 (PLoS ONE, 2017).

Test system: MV-4-11 cells
Test: Gene expression microarray analysis (Affymetrix PrimeView) and GSEA
Assay type: cell-based, human
Set-up: RFU PODN (11730768_x_at) / Fold change /veh PODN (11730768_x_at) / RFU LINC00158 (11744669_a_at) / Fold change /veh LINC00158 (11744669_a_at) / RFU DUSP10 (11751237_a_at) / Fold change /veh DUSP10 (11751237_a_at) / RFU ID3 (11757404_x_at) / Fold change /veh ID3 (11757404_x_at) / RFU PLEKHG5 (11737974_s_at) / Fold change /veh PLEKHG5 (11737974_s_at) / RFU LRRC4B (11730491_at) / Fold change /veh LRRC4B (11730491_at) / RFU GIMAP4 (11747438_a_at) / Fold change /veh GIMAP4 (11747438_a_at) / RFU KRT8 (11758183_x_at) / Fold change /veh KRT8 (11758183_x_at) / RFU CNN1 (11734310_a_at) / Fold change /veh CNN1 (11734310_a_at) / RFU VPS37D (11726825_at) / Fold change /veh VPS37D (11726825_at) / RFU C10orf10 (11716522_x_at) / Fold change /veh C10orf10 (11716522_x_at) / RFU KIR2DL2 /// KIR2DL4 /// KIR2DL5A /// KIR2DL5B /// KIR2DS1 /// KIR2DS2 /// KIR2DS3 /// KIR2DS4 /// KIR3DL3 /// KIR3DL3 /// KIR3DS1 (11738374_at) / Fold change /veh KIR2DL2 /// KIR2DL4 /// KIR2DL5A /// KIR2DL5B /// KIR2DS1 /// KIR2DS2 /// KIR2DS3 /// KIR2DS4 /// KIR3DL3 /// KIR3DL3 /// KIR3DS1 (11738374_at) / RFU C1QL1 (11718748_at) / Fold change /veh C1QL1 (11718748_at) / RFU TMPRSS4 (11747572_a_at) / Fold change /veh TMPRSS4 (11747572_a_at) / RFU HAMP (11756126_x_at) / Fold change /veh HAMP (11756126_x_at) / RFU RNFT2 (11725882_a_at) / Fold change /veh RNFT2 (11725882_a_at) / RFU NR4A2 (11747474_a_at) / Fold change /veh NR4A2 (11747474_a_at) / RFU ABCC12 (11746883_a_at) / Fold change /veh ABCC12 (11746883_a_at) / RFU TMEM136 (11760407_x_at) / Fold change /veh TMEM136 (11760407_x_at) / RFU CLDN22 /// WWC2 (11732394_at) / Fold change /veh CLDN22 /// WWC2 (11732394_at) / RFU HLA-DPB1 (11760878_x_at) / Fold change /veh HLA-DPB1 (11760878_x_at) / RFU SPINT1 (11716480_a_at) / Fold change /veh SPINT1 (11716480_a_at) / RFU GAP43 (11754022_s_at) / Fold change /veh GAP43 (11754022_s_at) / RFU A4GNT (11735810_at) / Fold change /veh A4GNT (11735810_at) / RFU PRB3 (11715151_x_at) / Fold change /veh PRB3 (11715151_x_at) / RFU TUBB4B (11761932_at) / Fold change /veh TUBB4B (11761932_at) / RFU CAPN14 (11732068_a_at) / Fold change /veh CAPN14 (11732068_a_at) / RFU TMCC2 (11721928_a_at) / Fold change /veh TMCC2 (11721928_a_at) / RFU IRGQ (11745062_a_at) / Fold change /veh IRGQ (11745062_a_at) / RFU FAM174B (11720279_a_at) / Fold change /veh FAM174B (11720279_a_at) / RFU TMPRSS4 (11748680_a_at) / Fold change /veh TMPRSS4 (11748680_a_at) / RFU FAM212B (11763350_a_at) / Fold change /veh FAM212B (11763350_a_at) / RFU PLEKHG5 (11743358_a_at) / Fold change /veh PLEKHG5 (11743358_a_at) / RFU ZSCAN30 (11745921_a_at) / Fold change /veh ZSCAN30 (11745921_a_at) / RFU CMKLR1 (11741424_a_at) / Fold change /veh CMKLR1 (11741424_a_at) / RFU LOC101060620 /// MAPK8IP1 (11723275_at) / Fold change /veh LOC101060620 /// MAPK8IP1 (11723275_at) / RFU SPTSSB (11747773_x_at) / Fold change /veh SPTSSB (11747773_x_at) / RFU PRSS12 (11739890_at) / Fold change /veh PRSS12 (11739890_at) / RFU BIN1 (11741810_x_at) / Fold change /veh BIN1 (11741810_x_at) / RFU WNT11 (11732464_a_at) / Fold change /veh WNT11 (11732464_a_at) / RFU C10orf10 (11716521_a_at) / Fold change /veh C10orf10 (11716521_a_at) / RFU C5orf56 (11738089_at) / Fold change /veh C5orf56 (11738089_at) / RFU CYB561 (11721691_x_at) / Fold change /veh CYB561 (11721691_x_at) / RFU ANKRD19P (11752326_a_at) / Fold change /veh ANKRD19P (11752326_a_at) / RFU OR2T12 /// OR2T33 /// OR2T8 (11738714_s_at) / Fold change /veh OR2T12 /// OR2T33 /// OR2T8 (11738714_s_at) / RFU VCAN (11748164_a_at) / Fold change /veh VCAN (11748164_a_at) / RFU JSRP1 (11732532_at) / Fold change /veh JSRP1 (11732532_at) / RFU KRTAP10-11 (11738290_x_at) / Fold change /veh KRTAP10-11 (11738290_x_at) / RFU MYO3A (11730013_a_at) / Fold change /veh MYO3A (11730013_a_at) / RFU EBF3 (11725865_a_at) / Fold change /veh EBF3 (11725865_a_at) / RFU CAMK2N1 (11719241_x_at) / Fold change /veh CAMK2N1 (11719241_x_at) / RFU C5orf56 (11738088_a_at) / Fold change /veh C5orf56 (11738088_a_at) / RFU OLFML3 (11715873_a_at) / Fold change /veh OLFML3 (11715873_a_at) / RFU LOC100653217 /// NTM (11731650_a_at) / Fold change /veh LOC100653217 /// NTM (11731650_a_at) / RFU MAPK11 (11762145_a_at) / Fold change /veh MAPK11 (11762145_a_at) / RFU FIZ1 (11724087_x_at) / Fold change /veh FIZ1 (11724087_x_at) / RFU OASL (11726364_x_at) / Fold change /veh OASL (11726364_x_at) / RFU SOX15 (11748057_x_at) / Fold change /veh SOX15 (11748057_x_at) / RFU CD79A (11719716_a_at) / Fold change /veh CD79A (11719716_a_at) / RFU HIST1H1D (11736915_at) / Fold change /veh HIST1H1D (11736915_at) / RFU CASKIN2 (11723855_a_at) / Fold change /veh CASKIN2 (11723855_a_at) / RFU LOC730098 (11760151_x_at) / Fold change /veh LOC730098 (11760151_x_at) / RFU OR4N2 (11742367_at) / Fold change /veh OR4N2 (11742367_at) / RFU PRRT2 (11749266_a_at) / Fold change /veh PRRT2 (11749266_a_at) / RFU SNX32 (11753110_a_at) / Fold change /veh SNX32 (11753110_a_at) / RFU CDHR5 (11726645_a_at) / Fold change /veh CDHR5 (11726645_a_at) / RFU RCAN1 (11760418_a_at) / Fold change /veh RCAN1 (11760418_a_at) / RFU FAM167A (11723789_a_at) / Fold change /veh FAM167A (11723789_a_at) / RFU FAM26E (11764081_at) / Fold change /veh FAM26E (11764081_at) / RFU ISYNA1 (11749810_s_at) / Fold change /veh ISYNA1 (11749810_s_at) / RFU ACY1 (11761880_at) / Fold change /veh ACY1 (11761880_at) / RFU 11764098_at / Fold change /veh 11764098_at / RFU SAMD14 (11745864_x_at) / Fold change /veh SAMD14 (11745864_x_at) / RFU NPB (11741838_a_at) / Fold change /veh NPB (11741838_a_at) / RFU TMPRSS6 (11731388_a_at) / Fold change /veh TMPRSS6 (11731388_a_at) / RFU KRTAP10-2 (11738614_at) / Fold change /veh KRTAP10-2 (11738614_at) / RFU ARHGAP8 /// PRR5-ARHGAP8 (11727945_x_at) / Fold change /veh ARHGAP8 /// PRR5-ARHGAP8 (11727945_x_at) / RFU KRTAP5-7 /// NADSYN1 (11734609_at) / Fold change /veh KRTAP5-7 /// NADSYN1 (11734609_at) / RFU RASL12 (11751679_a_at) / Fold change /veh RASL12 (11751679_a_at) / RFU CDKN2B (11736163_a_at) / Fold change /veh CDKN2B (11736163_a_at) / RFU PRF1 (11729649_at) / Fold change /veh PRF1 (11729649_at) / RFU, ZNF638 /// ZNF638-IT1 / Fold change vs veh, ZNF638 /// ZNF638-IT1 / RFU, PANK3 / Fold change vs veh, PANK3 / RFU, SH3YL1 / Fold change vs veh, SH3YL1 / RFU, ZEB2 / Fold change vs veh, ZEB2 / RFU, NRIP1 / Fold change vs veh, NRIP1 / RFU, PTTG1IP / Fold change vs veh, PTTG1IP / RFU, CAPN2 / Fold change vs veh, CAPN2 / RFU, MED14 / Fold change vs veh, MED14 / RFU, SNORA58 / Fold change vs veh, SNORA58 / RFU, C1orf63 / Fold change vs veh, C1orf63 / RFU, LRRFIP1 / Fold change vs veh, LRRFIP1 / RFU, NDUFAF7 / Fold change vs veh, NDUFAF7 / RFU, SLC12A2 / Fold change vs veh, SLC12A2 / RFU, IBTK / Fold change vs veh, IBTK / RFU, ESF1 / Fold change vs veh, ESF1 / Fold change vs veh, TMEM50B / RFU, TAOK1 / Fold change vs veh, TAOK1 / RFU, ACBD3 / Fold change vs veh, ACBD3 / RFU, TMA16 / Fold change vs veh, TMA16 / RFU, RWDD3 / Fold change vs veh, RWDD3 / RFU, BCAT1 / Fold change vs veh, BCAT1 / RFU, EDEM3 / Fold change vs veh, EDEM3 / RFU, TMEM33 / Fold change vs veh, TMEM33 / RFU, WDR75 / Fold change vs veh, WDR75 / RFU, AHCTF1 / Fold change vs veh, AHCTF1 / RFU, TFRC / Fold change vs veh, TFRC / RFU, ZDHHC17 / Fold change vs veh, ZDHHC17 / RFU, NOM1 / Fold change vs veh, NOM1 / RFU, ARL8B / Fold change vs veh, ARL8B / RFU, ZBTB11 / Fold change vs veh, ZBTB11 / RFU, TAMM41 / Fold change vs veh, TAMM41 / RFU, KIAA1704 /// LOC100996395 / Fold change vs veh, KIAA1704 /// LOC100996395 / RFU, ING1 / Fold change vs veh, ING1 / RFU, TRMT61B / Fold change vs veh, TRMT61B / RFU, FUBP3 / Fold change vs veh, FUBP3 / RFU, TP53 / Fold change vs veh, TP53 / RFU, TNKS2 / Fold change vs veh, TNKS2 / RFU, ZFP14 / Fold change vs veh, ZFP14 / RFU, ACTR2 / Fold change vs veh, ACTR2 / RFU, PPP3R1 / Fold change vs veh, PPP3R1 / RFU, PIK3R1 / Fold change vs veh, PIK3R1 / RFU, HNRNPA1 / Fold change vs veh, HNRNPA1 / RFU, RNF170 / Fold change vs veh, RNF170 / RFU, ZNF28 / Fold change vs veh, ZNF28 / RFU, RNGTT / Fold change vs veh, RNGTT / RFU, OGT / Fold change vs veh, OGT / RFU, BRD1 / Fold change vs veh, BRD1 / RFU, MARS / Fold change vs veh, MARS / RFU, ZNF655 / Fold change vs veh, ZNF655 / RFU, FAHD1 / Fold change vs veh, FAHD1 / RFU, BDP1 / Fold change vs veh, BDP1 / RFU, LRRCC1 / Fold change vs veh, LRRCC1 / RFU, ARID1A / Fold change vs veh, ARID1A / RFU, ZNF146 / Fold change vs veh, ZNF146 / RFU, ZNF330 / Fold change vs veh, ZNF330 / RFU, GPN3 / Fold change vs veh, GPN3 / RFU, C9orf123 / Fold change vs veh, C9orf123 / RFU, N4BP2L2 / Fold change vs veh, N4BP2L2 / RFU, ARFIP1 / Fold change vs veh, ARFIP1 / RFU, FAM179B / Fold change vs veh, FAM179B / RFU, BCL10 / Fold change vs veh, BCL10 / RFU, UHRF1BP1L / Fold change vs veh, UHRF1BP1L / RFU, BET1 / Fold change vs veh, BET1 / RFU, CNOT2 / Fold change vs veh, CNOT2 / RFU, ZNF268 / Fold change vs veh, ZNF268 / Fold change vs veh, ZNF507 / RFU, DGCR2 / Fold change vs veh, DGCR2 / RFU, WDSUB1 / Fold change vs veh, WDSUB1 / Fold change vs veh, HSP90B1 /// MIR3652 / RFU, ADSS / Fold change vs veh, ADSS / RFU, GK / Fold change vs veh, GK / RFU, ZNF148 / Fold change vs veh, ZNF148 / RFU, TAF9 / Fold change vs veh, TAF9 / RFU, SLC1A5 / Fold change vs veh, SLC1A5 / RFU, SLMO2 / Fold change vs veh, SLMO2 / RFU, ABCC4 / Fold change vs veh, ABCC4 / RFU, LOC101060439 /// RAP1B / Fold change vs veh, LOC101060439 /// RAP1B / RFU, RFX7 / Fold change vs veh, RFX7 / RFU, GTPBP10 / Fold change vs veh, GTPBP10 / RFU, CNEP1R1 / Fold change vs veh, CNEP1R1 / RFU, BIVM-ERCC5 /// ERCC5 / Fold change vs veh, BIVM-ERCC5 /// ERCC5 / RFU, ILF3 / Fold change vs veh, ILF3 / RFU 11762660_at / Fold change /veh 11762660_at / RFU VCAN (11757783_s_at) / Fold change /veh VCAN (11757783_s_at) / RFU DDX43 (11728927_at) / Fold change /veh DDX43 (11728927_at) / RFU KRT8 (11758188_x_at) / Fold change /veh KRT8 (11758188_x_at) / RFU NKD1 (11759106_at) / Fold change /veh NKD1 (11759106_at) / RFU SRD5A1 (11742802_a_at) / Fold change /veh SRD5A1 (11742802_a_at) / RFU TPSAB1 /// TPSB2 (11721975_s_at) / Fold change /veh TPSAB1 /// TPSB2 (11721975_s_at) / RFU GSTM3 (11746129_a_at) / Fold change /veh GSTM3 (11746129_a_at) / RFU IL23R (11737362_x_at) / Fold change /veh IL23R (11737362_x_at) / RFU TMEM51 (11727254_a_at) / Fold change /veh TMEM51 (11727254_a_at) / RFU PIWIL2 (11732686_x_at) / Fold change /veh PIWIL2 (11732686_x_at) / RFU ORM1 (11744905_x_at) / Fold change /veh ORM1 (11744905_x_at) / RFU CCDC152 (11743942_at) / Fold change /veh CCDC152 (11743942_at) / RFU ECM1 (11717891_a_at) / Fold change /veh ECM1 (11717891_a_at) / RFU IL23R (11748794_a_at) / Fold change /veh IL23R (11748794_a_at) / RFU TNFAIP8L3 (11732012_x_at) / Fold change /veh TNFAIP8L3 (11732012_x_at) / RFU MBOAT4 (11741988_at) / Fold change /veh MBOAT4 (11741988_at) / RFU 11764193_at / Fold change /veh 11764193_at / RFU TMEM53 (11763286_at) / Fold change /veh TMEM53 (11763286_at) / RFU MAGEB2 (11727129_at) / Fold change /veh MAGEB2 (11727129_at) / RFU TMEM200A (11744735_a_at) / Fold change /veh TMEM200A (11744735_a_at) / RFU CCDC152 (11751479_a_at) / Fold change /veh CCDC152 (11751479_a_at) / RFU FAM211A (11726209_a_at) / Fold change /veh FAM211A (11726209_a_at) / RFU RGS16 (11746705_a_at) / Fold change /veh RGS16 (11746705_a_at) / RFU VCAN (11755009_s_at) / Fold change /veh VCAN (11755009_s_at) / RFU RHOB (11743442_s_at) / Fold change /veh RHOB (11743442_s_at) / RFU RGS16 (11720943_a_at) / Fold change /veh RGS16 (11720943_a_at) / RFU RGS16 (11720944_at) / Fold change /veh RGS16 (11720944_at) / RFU, VPS4B / Fold change vs veh, VPS4B / RFU, CREB1 / Fold change vs veh, CREB1 / RFU, DNAJC13 / Fold change vs veh, DNAJC13 / RFU, GNAQ / Fold change vs veh, GNAQ / RFU, CDK5R1 / Fold change vs veh, CDK5R1 / RFU, ZRANB3 / Fold change vs veh, ZRANB3 / RFU, CUL4A / Fold change vs veh, CUL4A / RFU, CCNY / Fold change vs veh, CCNY / RFU, UFL1 / Fold change vs veh, UFL1 / RFU, COG3 / Fold change vs veh, COG3 / RFU, DIAPH2 / Fold change vs veh, DIAPH2 / RFU, SKA2 / Fold change vs veh, SKA2 / RFU, AFF3 / Fold change vs veh, AFF3 / RFU, LMF1 / Fold change vs veh, LMF1 / RFU, IPO11 / Fold change vs veh, IPO11 / RFU, DFFB / Fold change vs veh, DFFB / RFU, FOXP1 / Fold change vs veh, FOXP1 / RFU, CARD8 / Fold change vs veh, CARD8 / RFU, STRN3 / Fold change vs veh, STRN3 / RFU, ADK / Fold change vs veh, ADK / RFU, RASSF2 / Fold change vs veh, RASSF2 / RFU, WIPF1 / Fold change vs veh, WIPF1 / RFU, LARP1B / Fold change vs veh, LARP1B / RFU, RASA1 / Fold change vs veh, RASA1 / RFU, RB1 / Fold change vs veh, RB1 / RFU, PPFIA1 / Fold change vs veh, PPFIA1 / RFU, MAT2A / Fold change vs veh, MAT2A / RFU, CCT5 / Fold change vs veh, CCT5 / RFU, WDR92 / Fold change vs veh, WDR92 / RFU, CUX1 / Fold change vs veh, CUX1 / RFU, TTC7A / Fold change vs veh, TTC7A / RFU, TMEM135 / Fold change vs veh, TMEM135 / RFU, DEPTOR / Fold change vs veh, DEPTOR / RFU, CPM / Fold change vs veh, CPM / RFU, DNAJB6 / Fold change vs veh, DNAJB6 / RFU, CACNA2D3 / Fold change vs veh, CACNA2D3 / RFU, DTX4 / Fold change vs veh, DTX4 / RFU, TFCP2 / Fold change vs veh, TFCP2 / RFU, GMCL1 /// GMCL1P1 / Fold change vs veh, GMCL1 /// GMCL1P1 / RFU, AEBP2 / Fold change vs veh, AEBP2 / RFU, SNHG1 /// SNORD22 /// SNORD25 /// SNORD26 /// SNORD27 /// SNORD28 /// SNORD29 /// SNORD31 / Fold change vs veh, SNHG1 /// SNORD22 /// SNORD25 /// SNORD26 /// SNORD27 /// SNORD28 /// SNORD29 /// SNORD31 / Fold change (Aza/veh), C12orf56 (ProbeSet 11735607_a_at) / Fold change (ACY-1035/veh), C12orf56 (ProbeSet 11735607_a_at) / Fold change (Aza/veh), FGFR1OP (ProbeSet 11751329_s_at) / Fold change (ACY-1035/veh), FGFR1OP (ProbeSet 11751329_s_at) / Fold change (Aza/veh), VPS36 (ProbeSet 11739960_a_at) / Fold change (ACY-1035/veh), VPS36 (ProbeSet 11739960_a_at) / RFU SYPL1 (11715823_x_at) / Fold change /veh SYPL1 (11715823_x_at) / RFU IGFBP7 (11715501_s_at) / Fold change /veh IGFBP7 (11715501_s_at) / RFU REEP3 (11722064_at) / Fold change /veh REEP3 (11722064_at) / RFU IGLL1 (11728026_x_at) / Fold change /veh IGLL1 (11728026_x_at): dose or concentration left out as unconfirmed
Conditions: ProbeSet 11759095_at; LIST D

Q: How did the “Fold change vs veh, GNAQ” value turn out when Nc1ccc(-c2cccs2)cc1NC(=O)c1ccc2c(c1)cc(C1CC1)n2CCN1CCOCC1 [ACY-1035] was run?
A: The value was 0.95.
